Read-outs that look alike come from different tables or passages of the source.
Tests used:
[1] = Spectrophotometric determination of conditional formation constants, Fe^3+ complexes; assay type: binding
Experimental: (§1) The THP^Me and THP^H acid dissociation and conditional formation constants for their Ga^3+ and Fe^3+ complexes were investigated by spectrophotometric measurements. pKa and pM values (defined as –log[M^3+] when [ligand]total = 10 μM, [metal]total = 1 μM and pH = 7.4) are reported in Table 2. A full list of the measured conditional formation constants is provided in the ESI (Tables S1–S3 ^†), together with speciation plots calculated for the pH range of the titration. The pKa values for THP chelators are better described as intrinsic protonation constants since they represent the average pKa values of the three hydroxypyridinone units, which could not be distinguished by UV spectrophotometric measurements.[45] The first intrinsic pKa is attributed to the carbonyl group of the HP unit, and the second to the adjacent hydroxyl group. For THP^H a third intrinsic protonation constant, pKa3, associated with deprotonation of the N^1–H group in the pyridinone ring, exists outside the pH range used. The value of pKa3 was estimated to be 13 from the spectral change of the [Fe(THP^H)] complex in the pH 10–12.5 range. The measured protonation constants for THP^H are lower than those measured for deferiprone, but slightly higher than those for THP^Me (that is, THP^Me is slightly more acidic than THP^H).
(§2) The automated titration system consists of a Metrohm 765 Dosimat autoburette, a Mettler Toledo MP230 pH meter with SENTEK pH electrode (P11), and an HP 8453 UV-visible spectrophotometer with a Hellem quartz flow cuvette, with circulation driven by a Gilson Mini-plus #3 pump (speed capability 20 mL min^–1). A potassium chloride electrolyte solution (0.1 M) was used to maintain the ionic strength. The temperature of the test solutions was maintained in a thermostatic jacketed titration vessel at 25 ± 0.1 °C, using a Fisherbrand Isotemp water bath. […]
(§3) The automated titration adopted the following strategy: the pH of a solution was increased in increments of 0.1 pH unit by the addition of potassium hydroxide solution (0.1 M) from the autoburette. The pH readings were judged stable if they varied by less than 0.01 pH unit after a pre-set incubation period. […] Titration data were analysed with the HypSpec2014 program[48],[49] […] The fitting spectra range for iron complexes was 400–700 nm while that for gallium complexes was 250–350 nm. pH values higher than 11.3 (outside the pH range in which electrode measurements are considered accurate) were neglected and re-calculated from the added KOH quantity (using “no pH” mode within the HypSpec2014 program). […] Metal affinities of compounds in this study were determined in competition with the metal hydrolysis species in a solution at a high pH (titrated up to pH 12.5). […]

[2] = Spectrophotometric titration, acid dissociation constants; assay type: physicochemical
Experimental: as §1
The automated titration system consists of a Metrohm 765 Dosimat autoburette, a Mettler Toledo MP230 pH meter with SENTEK pH electrode (P11), and an HP 8453 UV-visible spectrophotometer with a Hellem quartz flow cuvette, with circulation driven by a Gilson Mini-plus #3 pump (speed capability 20 mL min^–1). A potassium chloride electrolyte solution (0.1 M) was used to maintain the ionic strength. The temperature of the test solutions was maintained in a thermostatic jacketed titration vessel at 25 ± 0.1 °C, using a Fisherbrand Isotemp water bath. The pH electrodes were calibrated using the software GLEE[47] with data obtained by titrating a volumetric standard HCl (0.1 M) in KCl (0.1 M) with KOH (0.1 M) under an atmosphere of argon. Analytical grade reagent materials were used in the preparation of all solutions. The solution under investigation was stirred vigorously during the experiment. For pKa determinations, a cuvette path length of 10 mm was used, while for metal stability constants determinations, a cuvette path length of 50 mm was used (experimental concentration was ca. 40 μM for iron complexes and ca. 10 μM for gallium complexes). All instruments were interfaced to a computer and controlled by an in-house program.
The automated titration adopted the following strategy: the pH of a solution was increased in increments of 0.1 pH unit by the addition of potassium hydroxide solution (0.1 M) from the autoburette. The pH readings were judged stable if they varied by less than 0.01 pH unit after a pre-set incubation period. […] The cycle was repeated until the predefined end point pH value was achieved. Titration data were analysed with the HypSpec2014 program[48],[49] […] The fitting spectra range for iron complexes was 400–700 nm while that for gallium complexes was 250–350 nm. pH values higher than 11.3 (outside the pH range in which electrode measurements are considered accurate) were neglected and re-calculated from the added KOH quantity (using “no pH” mode within the HypSpec2014 program). […] Metal affinities of compounds in this study were determined in competition with the metal hydrolysis species in a solution at a high pH (titrated up to pH 12.5). […]

[3] = Spectrophotometric determination of conditional formation constants, Ga^3+ complexes; assay type: binding
Experimental: as §1, §2, §3

[4] = cited from earlier work
[5] = cited from earlier work; remark: listed apart in the source
mouse = assay: In vivo ^68Ga scavenging: acetate-buffered ^68Ga injected, then chelator; PET/CT and urine HPLC; settings: female BALB/c mouse, THPMe at 45 minutes
Experimental: The ability of THP^H to scavenge gallium in vivo was also investigated. […] This scavenging ability, shared with THP^Me (ESI, Fig. S8 ^†), reflects the rapid complexation kinetics and the extraordinary ability to transchelate gallium (which is known to bind rapidly and almost completely to transferrin when intravenously injected[44]) rapidly in the biological milieu.
All in vivo experiments were carried out in accordance with British Home Office regulations governing animal experimentation and complied with guidelines on responsibility in the use of animals in bioscience research of the U.K. Research Councils and Medical Research Charities, under U.K. Home Office project and personal licences. […] Respiration rate and bed temperature were monitored throughout. […] All reconstructed datasets were analysed using VivoQuant 1.21 software (inviCRO), which enables the co-registration of PET and CT images and the delineation of regions of interest (ROIs) for quantification of activity in specific organs. […] Urine was collected and analysed by reversed-phase HPLC (method 3).
An E&Z generator was eluted with 5 mL of pure HCl 0.1 M (Fluka analytical) in five 1 mL fractions and their activity measured by a Capintec radionuclide dose calibrator. […]
Quantitative radiolabelling was obtained for all examined concentrations. […]

[6] = M3+ + 2 L− ⇄ [ML2]+, repeated as control
[7] = M3+ + 3 L− ⇄ [ML3], repeated as control
[8] = M3+ + L− ⇄ [ML]2+, repeated as control
[9] = –log[M^3+] at [M]total = 1 μM, [L]total = 10 μM, pH = 7.4
[10] = 0.1 M KCl electrolyte solution, intrinsic pKa for THP ligands (carbonyl group of HP unit), 25 °C, 0.1 M KCl, read-out: pKa1

Cc1c(O)c(=O)ccn1C [Deferiprone]
Log β [FeL]2+ [1, 6]: 27.5
Log β [FeL3] [1, 7]: 37.5
Log β [FeL]2+ [1, 8]: 15.0
pFe [1, 9]: 20.8
pKa [2, 10]: 3.5
pKa ([2]; intrinsic pKa for THP ligands (hydroxyl group), 25 °C, 0.1 M KCl, read-out: pKa2): 9.8
Log β [GaL]2+ [3, 6]: 27.0
Log β [GaL3] [3, 7]: 37.4
Log β [GaL]2+ [3, 8]: 14.4
pGa [3, 9]: 20.7

O=C(O)CN(CCN(CC(=O)O)Cc1ccccc1O)Cc1ccccc1O [HBED, N,N-bis(2-hydroxybenzyl)ethylenediamine-N,N-diacetic acid]
log KFe [4]: 36.74
log KGa [5]: 37.73

CC(=O)NC(CCC(=O)NCc1[nH]c(C)cc(=O)c1O)(CCC(=O)NCc1[nH]c(C)cc(=O)c1O)CCC(=O)NCc1[nH]c(C)cc(=O)c1O [THP^H]
pKa [2, 10]: 3.2
pKa ([2]; 0.1 M KCl electrolyte solution, intrinsic pKa for THP ligands (hydroxyl group), 25 °C, 0.1 M KCl, read-out: pKa2): 9.4
pKa ([2]; 0.1 M KCl electrolyte solution, pH 10, N^1–H deprotonation, estimated from spectral change of [Fe(THP^H)] in pH 10–12.5, read-out: pKa3): ~13

CC(=O)NC(CCC(=O)NCc1c(O)c(=O)cc(C)n1C)(CCC(=O)NCc1c(O)c(=O)cc(C)n1C)CCC(=O)NCc1c(O)c(=O)cc(C)n1C [THP^Me, tris(1,6-dimethyl-3-hydroxypyridin-4-one)]
In vivo ^68Ga binding and blood clearance after injection of the chelator (mouse): able to bind 68Ga in vivo

Reference: publication PMC6469224, “Tuning the properties of tris(hydroxypyridinone) ligands: efficient ^68Ga chelators for PET imaging” (Dalton Transactions (Cambridge, England : 2003), 2019)
